Holding throughout (format): physicochemical
Data set [1] in a line: Absorption and photoluminescence (quantum yield, lifetime, q). Also noted: λabs(max): unit not given here. Particulars: for R, I(5D0 → 7F2)/I(5D0 → 7F1): asymmetry ratio, 10 in MeOH; for R, I(5D0 → 7F2)/I(5D0 → 7F1) / λabs(max): room temperature, 11 in DMSO; for q (Parker's) / q (Horrocks'): from lifetimes in H2O and D2O; for q (Parker's): first value of cell; for q (Horrocks'): second value of cell; for ΦEuEu (%): intrinsic quantum yield, calculated value; for τD2O/MeOD / τH2O/MeOH: luminescence lifetime, 5D0 → 7F2 transition; for τD2O/MeOD: D2O (MeOD for 10); for τH2O/MeOH: H2O (MeOH for 10); for ΦDMSO (%): luminescence quantum yield in DMSO; for ΦH2O/MeOH (%): luminescence quantum yield relative to quinine sulfate in 0.1M H2SO4, H2O (MeOH for 10, insoluble in H2O); for ΦHEPES (%): luminescence quantum yield, 0.1M HEPES buffer, pH 7.4; for λabs(max): 10 measured in MeOH; for ηsens (%): sensitization efficiency, calculated according to ref 61. Here is the method:
(§1) Absorption spectra of complexes were measured with HP UV-8453 spectrophotometer. Steady-state room temperature photoluminescence measurements were performed with an Edinburgh Instrument FLSP920 spectrophotometer equipped with a Xe900 continuous xenon lamp, μF920 microsecond flash lamp and a single photon counting photomultiplier tube. Spectra were corrected with the bundled F900 software. Solution-state measurements were conducted using quartz curettes of 10 mm path length. CPL measurements were conducted on a custom built spectrometer^63 (in Durham University) consisting of a laser driven light source (Energetiq EQ-99 LDLS, spectral range 170 to 2100 nm) coupled to an Acton SP2150 monochromator (600 g/nm, 300 nm Blaze) that allows excitation wavelengths to be selected with a 6 nm FWHM band-pass. The collection of the emitted light was facilitated (90° angle set up, 1 cm path length quartz curette) by a Lock-In Amplifier (Hinds Instruments Signaloc 2100) and Photoelastic Modulator (Hinds Instruments PEM-90). The differentiated light was focused onto an Acton SP2150 monochromator (1200 g/nm, 500 nm Blaze) equipped with a high sensitivity cooled Photo Multiplier Tube (H10723-20 Extended red-multialkali PMT based photosensor (5V)). Spectra were recorded using a 5 spectral average sequence in the range of 570-720 nm with 0.5 nm spectral intervals and 500 μs integration time. The recorded CPL spectrum underwent a 25% Fourier transformation smoothening protocol using Origin 8.0 Software (Origin Labs) to enhance appearance (all calculations were carried out using raw spectral data).
The shift in absorption is caused by electronic communication between the electropositive lanthanide center and the chromophore. […] These are not observed for 11, however, as we believe the steric effect of the planar phenyl ring of the benzyl group could not be alleviated by appropriate rotation, whereas that of the isobutyl group could.
The luminescence quantum yields of the complexes are decent in water and HEPES solution, although they are much higher in DMSO, due to the nonradiative quenching by O—H oscillators of water molecules in the second coordination sphere (Table 6). The intrinsic quantum yields^61—a calculated value evaluating the quantum yield of Eu(III) via direct metal excitation—of the complexes are calculated, and, as expected, the values are very similar, except for 10. The higher value corroborates with the shift in absorption maximum, for which we believe the reason is due to a shorter europium—chromophore distance and better interaction. On the other hand, the sensitization efficiencies of the complexes vary. […] The relatively remarkable ηsens of 13 is attributed to its structural rigidity, as both the tetraaza backbone and the acetate arms are modified with a chrial substituent, i.e., double chirality. The double chirality is also attributed for the increase in luminescence quantum yield compared to that of 12a/12b.

Data set [2] in a line: Circularly polarized luminescence (CPL), dissymmetry factor glum. The conditions noted are these: for glum ΔJ = 1 (λ) DMSO / glum ΔJ = 3 (λ) DMSO / glum ΔJ = 1 (λ) H2O / glum ΔJ = 3 (λ) H2O: wavelength in parentheses in the cell. Here is the method:
as §1, with “Steady-state” for “Absorption spectra of complexes were measured with HP UV-8453 spectrophotometer. Steady-state”, “time.” for “time. The recorded CPL spectrum underwent a 25% Fourier transformation smoothening protocol using Origin 8.0 Software (Origin Labs) to enhance appearance (all calculations were carried out using raw spectral data).”

Data set [3] can be described thus: Relaxivity (r1, r2) measurement of Gd(III) complexes in water, BSA and human plasma. Set-up: r1 Human Plasma (1.5 T): unit not given beside the values. Particulars: 1.5 T, 37° C. As to the method:
This is very important because the huge difference in the inner-sphere coordinated water exchange rate between the two isomers is a key factor for applications, for example, as MRI contrast agents. To show their potential value, the two diastereomers of [GdL2]^− ([GdL2A]^− and [GdL2B]^−) were separated and their relaxivities were measured. The relaxivities of [GdL1]^−, [GdL2]^−, [GdL2A]^−, [GdL2B]^− and [GdDOTA]^− in water at different magnetic strengths (1.5 T and 11.7 T) were compared, with or without the presence of BSA and human plasma (1.5 T) (Table 1). It is clearly seen that the complexes of [GdL1]^−, [GdL2A]^− and [GdL2B]^− have relaxivity properties similar to that of the [GdDOTA]^− complex.

As to `COc1cc(OC)c(C#Cc2cc(CN3CCN(C(C)C(=O)[O-])CCN(C(C)C(=O)[O-])CCN(C(C)C(=O)[O-])CC3)nc(P(C)(=O)[O-])c2)c(OC)c1.[Eu+3]` (single isomer, unassigned) [Complex 12a], in data set [1] (listed as 12a), the “R, I(5D0 → 7F2)/I(5D0 → 7F1)” value was 2.74; the “q (Parker's)” value is on record as 0.07; the “q (Horrocks')” value came to 0.01; the “ΦEuEu (%)” value is on record as 26.6%. For the same molecule, in data set [1] (listed as 12a), the “τD2O/MeOD” value is on record as 1.70 ms, the “τH2O/MeOH” value was found to be 1.12 ms, the “ΦDMSO (%)” value is given as 46.4% and the “ΦH2O/MeOH (%)” value was determined as 12.7%. In addition, in data set [1] (listed as 12a), the “ΦHEPES (%)” value is 12.4%, the “λabs(max)” value was determined as 352 and the “ηsens (%)” value is recorded as 47.0%. Also, in data set [2] (listed as 12a), the “glum ΔJ = 1 (λ) DMSO” value was −0.04 (591), the “glum ΔJ = 3 (λ) DMSO” value is −0.04 (657), the “glum ΔJ = 1 (λ) H2O” value is given as −0.03 (588) and the “glum ΔJ = 3 (λ) H2O” value is given as −0.05 (653).
Take `COc1cc(OC)c(C#Cc2cc(CN3CCN(C(C)C(=O)[O-])CCN(C(C)C(=O)[O-])CCN(C(C)C(=O)[O-])CC3)nc(P(C)(=O)[O-])c2)c(OC)c1.[Eu+3]` (single isomer, unassigned) [Complex 12b]: in data set [1] (listed as 12b), the “R, I(5D0 → 7F2)/I(5D0 → 7F1)” value stood at 2.41; the “q (Parker's)” value was 0.11; the “q (Horrocks')” value is 0.03; the “ΦEuEu (%)” value is on record as 24.9%. In addition, in data set [1] (listed as 12b), the “τD2O/MeOD” value is reported as 1.77 ms, the “τH2O/MeOH” value was 1.04 ms, the “ΦDMSO (%)” value is reported as 44.1% and the “ΦH2O/MeOH (%)” value amounted to 10.2%. Further, in data set [1] (listed as 12b), the “ΦHEPES (%)” value was found to be 9.8%, the “λabs(max)” value is 355 and the “ηsens (%)” value is reported as 41.0%. Further, in data set [2] (listed as 12b), the “glum ΔJ = 1 (λ) DMSO” value was −0.11 (591), the “glum ΔJ = 3 (λ) DMSO” value is on record as −0.10 (653), the “glum ΔJ = 1 (λ) H2O” value was −0.04 (591) and the “glum ΔJ = 3 (λ) H2O” value is −0.11 (653).
`CC[C@H]1CN(CC(=O)[O-])[C@@H](CC)CN(CC(=O)[O-])[C@@H](CC)CN(CC(=O)[O-])[C@@H](CC)CN1CC(=O)[O-].[Gd+3]` (single isomer, unassigned) [[GdL2A]^−]: the “r1 4.5 w/v BSA (1.5 T)” value in data set [3] (4.5 w/v BSA) was 3.9. For the same molecule, in data set [3] (human plasma), the “r1 Human Plasma (1.5 T)” value turned out to be 2.9. Further, the “r1 Water (1.5 T)” value in data set [3] (water) is listed as 3.0.
For the molecule `COc1cc(OC)c(C#Cc2cc(CN3CCN(CC(=O)[O-])CCN(CC(=O)[O-])CCN(CC(=O)[O-])CC3)nc(P(C)(=O)[O-])c2)c(OC)c1.[Eu+3]` [Complex 7], in data set [1], the “R, I(5D0 → 7F2)/I(5D0 → 7F1)” value turned out to be 2.52; the “q (Parker's)” value amounted to 0.06; the “q (Horrocks')” value is recorded as 0.01; the “ΦEuEu (%)” value is 23.6%. In data set [1], the “τD2O/MeOD” value is on record as 1.44 ms, the “τH2O/MeOH” value is given as 1.01 ms, the “ΦDMSO (%)” value was determined as 47.0% and the “ΦH2O/MeOH (%)” value came to 7.6%. In data set [1], the “ΦHEPES (%)” value came out at 6.9%, the “λabs(max)” value is on record as 353 and the “ηsens (%)” value was 32.3%.
`CC[C@H]1CN(CC(=O)[O-])[C@@H](CC)CN(Cc2cc(C#Cc3c(OC)cc(OC)cc3OC)cc(P(C)(=O)[O-])n2)[C@@H](CC)CN(CC(=O)[O-])[C@@H](CC)CN1CC(=O)[O-].[Eu+3]` [Complex 8]: in data set [1], the “R, I(5D0 → 7F2)/I(5D0 → 7F1)” value came out at 2.43; the “q (Parker's)” value was determined as 0.10; the “q (Horrocks')” value is given as 0.02; the “ΦEuEu (%)” value is given as 26.0%. In data set [1], the “τD2O/MeOD” value stood at 1.76 ms, the “τH2O/MeOH” value was 1.12 ms, the “ΦDMSO (%)” value was 50.0% and the “ΦH2O/MeOH (%)” value is on record as 14.0%. Also, in data set [1], the “ΦHEPES (%)” value stood at 14.0%, the “λabs(max)” value is 356 and the “ηsens (%)” value is 53.8%. For the same molecule, in data set [2], the “glum ΔJ = 1 (λ) DMSO” value is recorded as −0.18 (591), the “glum ΔJ = 3 (λ) DMSO” value is listed as “+0.17 (657)”, the “glum ΔJ = 1 (λ) H2O” value is given as −0.11 (591) and the “glum ΔJ = 3 (λ) H2O” value is −0.28 (653).
With `CCC1CN(C(C)C(=O)[O-])C(CC)CN(C(C)C(=O)[O-])C(CC)CN(C(C)C(=O)[O-])C(CC)CN1Cc1cc(C#Cc2c(OC)cc(OC)cc2OC)cc(P(C)(=O)[O-])n1.[Eu+3]` (centres unmarked) [Complex 13], in data set [1], the “R, I(5D0 → 7F2)/I(5D0 → 7F1)” value was determined as 2.66; the “q (Parker's)” value turned out to be 0.00; the “q (Horrocks')” value was 0.06; the “ΦEuEu (%)” value is listed as 30.2%. In data set [1], the “τD2O/MeOD” value is recorded as 1.83 ms, the “τH2O/MeOH” value worked out at 1.25 ms, the “ΦDMSO (%)” value was 49.7% and the “ΦH2O/MeOH (%)” value is 21.9%. For the same molecule, in data set [1], the “ΦHEPES (%)” value worked out at 20.9%, the “λabs(max)” value amounted to 356 and the “ηsens (%)” value was 72.6%. Further, in data set [2], the “glum ΔJ = 1 (λ) DMSO” value is reported as −0.17 (588), the “glum ΔJ = 3 (λ) DMSO” value is on record as −0.29 (657) and the “glum ΔJ = 3 (λ) H2O” value is given as −0.33 (652). In addition, in data set [2] (aqueous solution), the “absolute glum 589 nm” value is recorded as 0.23.
